We go through one sequence from US11517591B2, “Immunogenic peptides specific to BCMA and TACI antigens” (Dana-Farber Cancer Institute, Inc., priority 2017, dated 2022).

For the test, the system named is CD3+ T cells obtained from HLA-A2+ donors. The test is described as follows: Induction and phenotypic analysis of peptide-specific CTL by repeated peptide stimulation. The class given is cell-based, human. Here is the method:
The peptide-specific CTL were generated from different HLA-A2^+ normal donors for the evaluation of the functional activities targeting MM cell lines. To generate the peptide-specific CTL, mature dendritic cells (mDC) generated from the same donor were resuspended in serum-free AIM-V media and pulsed with 50 μg/ml of the Heteroclitic #4 BCMA72-80 (YLMFLLRKI (SEQ ID NO: 13)) peptide or “Heteroclitic #3 TACI154-162 (YLSADQVAL (SEQ ID NO: 16))” peptide, overnight at 37° C., 5% CO2 in humidified air. The peptide-pulsed mDC were washed, counted, irradiated at 10 Gy and used to prime CD3^+ T cells at a 1:20 antigen-presenting cells/peptide-to-CD3^+ T cell ratio in AIM-V media supplemented with 10% human AB serum. […] To maintain the T cells ex vivo, IL-2 (50 U/ml) was added to the cultures two days after the second stimulation. Control T cell cultures were maintained under the same culture conditions in the presence of IL-2 (50 U/ml), but without peptide stimulation. Phenotype of the resulting CTL was evaluated one week after each cycle of peptide stimulation. […] The BCMA peptide-specific CTL cultures contained a higher percentage of CD8^+ T cells (˜80%) upon 4 cycle of peptide stimulation compared to non-peptide stimulated control T cells (˜20%) (FIGS. 8A-8C).
Antigen-specific CTL can be phenotypically identified as activated/memory T cells from naïve T cells by their expression of distinct cell surface antigens. The phenotype of the BCMA-CTL were examined as potential effector cells by analyzing the phenotype of naïve and memory cells. BCMA peptide-specific CTL were generated by repeated stimulation of HLA-A2^+ normal donor's CD3^+ T cells weekly with antigen-presenting cells pulsed with 50 μg/ml heteroclitic BCMA72-80 (YLMFLLRKI (SEQ ID NO: 13)). One week after each peptide stimulation, the resulting CTL were evaluated for their phenotypic profile by flow cytometry.
BCMA peptide-specific CTL (BCMA-CTL) were generated ex vivo by repeated stimulation of CD3^+ T cells obtained from HLA-A2^+ donors with peptide-pulsed antigen-presenting cells (APC). In brief, peptide (50 μg/ml)-pulsed APC were irradiated (10 Gy) and used to stimulate T cells at a 1 APC/peptide: 20 T cell ratio. The T cell cultures were restimulated every 7 days and maintained in AIM-V medium supplemented with 10% human AB serum (BioWhittaker) in the presence of IL-2 (50 units/ml).
Phenotypic characterization was performed on BCMA-CTL after staining with Live/Dead Aqua stain kit and fluorochrome conjugated anti-human mAbs and Tetramer-PE. Alternatively, the MM and breast cancer cell lines were stained with fluorochrome-conjugated BCMA or HLA-A2 mAb. After staining, the cells were washed, fixed in 2% paraformaldehyde, and analyzed by flow cytometry.
TACI peptide-specific CTL (TACI-CTL) were generated ex vivo by repeated stimulation of enriched CD3^+ T cells obtained from HLA-A2^+ donors with peptide-pulsed antigen-presenting cells (APC). In brief, peptide (50 μg/ml)-pulsed APC were irradiated (10 Gy) and used to stimulate T cells at a 1:20 APC/peptide-to-T cell ratio. The T cell cultures were restimulated every 7 days and maintained in AIM-V medium supplemented with 10% human AB serum (BioWhittaker) in the presence of IL-2 (50 units/ml).
Phenotypic characterization was performed on the MM target cells to conform TACI expression. Phenotypic characterization was performed on the TACI-CTL after staining with Live/Dead Aqua stain kit and fluorochrome conjugated anti-human mAbs. After staining, the cells were washed, fixed in 2% paraformaldehyde, and analyzed by flow cytometry.

Setting [1] is: Donor 1, after 2 cycles of peptide stimulation.
[2] abbreviates: Donor 1, after 4 cycles of stimulation.
The mark [3] stands for this setting: Donor 1, upon 4 cycles of stimulation.
[4] abbreviates: Donor 2, after 2 cycles of peptide stimulation.
Where [5] appears, read: Donor 2, after 4 cycles of stimulation.
[6] abbreviates: Donor 2, upon 4 cycles of stimulation.

Turning to “YLMFLLRKI [heteroclitic BCMA72-80, heteroclitic BCMA peptide]”, under setting [1], the “Naïve (CD45RO-CCR7+) within CD8+ T cells” value is on record as 37.4% and the “central memory (CM; CD45RO+CCR7+) within CD8+ T cells” value was found to be 32.1%. In addition, under setting [2], the “central memory (CM) within CD8+ T cells” value stood at 44.2% and the “effector memory (EM; CD45RO+CCR7-) within CD8+ T cells” value is reported as 54.6%. Under setting [3], the “frequency of memory CD3+CD8+ T cells” value came to 86% and the “frequency of naive CD3+CD8+ T cells” value was determined as 2%. Under setting [4], the “Naïve (CD45RO-CCR7+) within CD8+ T cells” value amounted to 19.0% and the “central memory (CM) within CD8+ T cells” value is on record as 49.6%. Besides, under setting [5], the “central memory (CM) within CD8+ T cells” value is listed as 18.3% and the “effector memory (EM) within CD8+ T cells” value was 77.6%. Under setting [6], the “frequency of memory CD3+CD8+ T cells” value worked out at 92% and the “frequency of naive CD3+CD8+ T cells” value came out at 2%. In addition, where the note is “after 4 cycles of peptide stimulation”, the “frequency of effector memory (CD45RO+/CCR7-) CD3+CD8+ T cells” value is recorded as “increased”. Moreover, the “percentage of CD8+ T cells in peptide-specific CTL cultures” value (upon 4 cycle of peptide stimulation, 50 μg/ml) is listed as approximately 80%.
